According to the NIST ThermoML archive (doi:10.1016/j.jct.2018.12.018):
Several values for one entry are separate records, joined by “and”; a condition that tells them apart may be missing. Equal values may be shown once.

Assay: xn = mol fraction of the nth substance listed
Details: Liquid, x1 = 0.617; for speed of sound: Frequency=3 MHz, Single path-length method; for mass density: Vibrating tube method

CCOC(F)(F)C(F)(C(F)(F)F)C(F)(F)F [nonafluoroisobutyl ethyl ether] + CCOC(F)(F)C(F)(F)C(F)(F)C(F)(F)F
Details | mass density | speed of sound [m/s]
293.15 K, 100 kPa | 1433.9 kg/m3 and 1434.27 kg/m3 | 637.83
293.15 K, 1000 kPa | 1436.6 kg/m3 | –
293.15 K, 5000 kPa | 1448.2 kg/m3 | –
293.15 K, 10000 kPa | 1461.3 kg/m3 | –
293.15 K, 15000 kPa | 1473.4 kg/m3 | –
293.15 K, 20000 kPa | 1484.5 kg/m3 | –
293.15 K, 25000 kPa | 1494.8 kg/m3 | –
293.15 K, 30000 kPa | 1504.7 kg/m3 | –
293.15 K, 35000 kPa | 1513.9 kg/m3 | –
293.15 K, 40000 kPa | 1522.5 kg/m3 | –
293.15 K, 45000 kPa | 1530.8 kg/m3 | –
293.15 K, 50000 kPa | 1538.7 kg/m3 | –
293.15 K, 55000 kPa | 1546.3 kg/m3 | –
293.15 K, 60000 kPa | 1553.5 kg/m3 | –
293.15 K, 65000 kPa | 1560.5 kg/m3 | –
293.15 K, 70000 kPa | 1567.2 kg/m3 | –
293.15 K, 80000 kPa | 1580 kg/m3 | –
293.15 K, 90000 kPa | 1591.9 kg/m3 | –
293.15 K, 100000 kPa | 1603.1 kg/m3 | –
293.15 K, 110000 kPa | 1613.9 kg/m3 | –
293.15 K, 120000 kPa | 1624 kg/m3 | –
293.15 K, 130000 kPa | 1633.7 kg/m3 | –
293.15 K, 140000 kPa | 1642.8 kg/m3 | –
298.15 K, 100 kPa | 1423.06 kg/m3 and 1422.8 kg/m3 | 622.13
298.15 K, 1000 kPa | 1425.6 kg/m3 | –
298.15 K, 5000 kPa | 1437.7 kg/m3 | –
298.15 K, 10000 kPa | 1451.5 kg/m3 | –
298.15 K, 15000 kPa | 1463.9 kg/m3 | –
298.15 K, 20000 kPa | 1475.4 kg/m3 | –
298.15 K, 25000 kPa | 1486.2 kg/m3 | –
298.15 K, 30000 kPa | 1496.1 kg/m3 | –
298.15 K, 35000 kPa | 1505.7 kg/m3 | –
298.15 K, 40000 kPa | 1514.5 kg/m3 | –
298.15 K, 45000 kPa | 1523 kg/m3 | –
298.15 K, 50000 kPa | 1531.1 kg/m3 | –
298.15 K, 55000 kPa | 1538.8 kg/m3 | –
298.15 K, 60000 kPa | 1546.3 kg/m3 | –
298.15 K, 65000 kPa | 1553.4 kg/m3 | –
298.15 K, 70000 kPa | 1560.2 kg/m3 | –
298.15 K, 80000 kPa | 1573.2 kg/m3 | –
298.15 K, 90000 kPa | 1585.4 kg/m3 | –
298.15 K, 100000 kPa | 1596.9 kg/m3 | –
298.15 K, 110000 kPa | 1607.6 kg/m3 | –
298.15 K, 120000 kPa | 1618 kg/m3 | –
298.15 K, 130000 kPa | 1627.8 kg/m3 | –
298.15 K, 140000 kPa | 1637.2 kg/m3 | –
303.15 K, 100 kPa | 1411.62 kg/m3 | 606.46
313.15 K, 100 kPa | 1388.53 kg/m3 and 1388.4 kg/m3 | 575.75
313.15 K, 1000 kPa | 1391.8 kg/m3 | –
313.15 K, 5000 kPa | 1405.6 kg/m3 | –
313.15 K, 10000 kPa | 1421.1 kg/m3 | –
313.15 K, 15000 kPa | 1435.1 kg/m3 | –
313.15 K, 20000 kPa | 1447.8 kg/m3 | –
313.15 K, 25000 kPa | 1459.5 kg/m3 | –
313.15 K, 30000 kPa | 1470.6 kg/m3 | –
313.15 K, 35000 kPa | 1480.8 kg/m3 | –
313.15 K, 40000 kPa | 1490.3 kg/m3 | –
313.15 K, 45000 kPa | 1499.5 kg/m3 | –
313.15 K, 50000 kPa | 1508.1 kg/m3 | –
313.15 K, 55000 kPa | 1516.4 kg/m3 | –
313.15 K, 60000 kPa | 1524.3 kg/m3 | –
313.15 K, 65000 kPa | 1531.9 kg/m3 | –
313.15 K, 70000 kPa | 1539.2 kg/m3 | –
313.15 K, 80000 kPa | 1552.9 kg/m3 | –
313.15 K, 90000 kPa | 1565.7 kg/m3 | –
313.15 K, 100000 kPa | 1577.6 kg/m3 | –
313.15 K, 110000 kPa | 1589 kg/m3 | –
313.15 K, 120000 kPa | 1599.7 kg/m3 | –
313.15 K, 130000 kPa | 1610 kg/m3 | –
313.15 K, 140000 kPa | 1619.7 kg/m3 | –
323.15 K, 100 kPa | 1365.15 kg/m3 | 545.46
333.15 K, 100 kPa | 1341.02 kg/m3 and 1340.7 kg/m3 | 515.64
333.15 K, 1000 kPa | 1344.8 kg/m3 | –
333.15 K, 5000 kPa | 1361.6 kg/m3 | –
333.15 K, 10000 kPa | 1380.1 kg/m3 | –
333.15 K, 15000 kPa | 1396.3 kg/m3 | –
333.15 K, 20000 kPa | 1410.8 kg/m3 | –
